Reference: patent US20130109698A1, “Small Molecule Inhibitors of Functions of the HIV-1 Matrix Protein” (priority 2010, published 2013)

How the values were obtained:
[1] = system: luciferase-reporter HIV-1 NL4-3 pseudotyped with HxBc2 envelope produced in 293T cells; test: microbe, parasite or virus in culture
HIV-1 IIIB = test: Infection of Sup-T1 cells by HIV-1 IIIB, p24 ELISA; settings: 50 μM, three days

O=C(NCc1ccc(CN2CCCC2)cc1)c1ccc(C2SCCCS2)cc1 [CMPD-19, 4-(1,3-dithian-2-yl)-N-(4-(pyrrolidin-1-ylmethyl)benzyl)benzamide]
IC50 [1]: 26 µM
HIV-1 replication (p24), in words (HIV-1 IIIB): inhibited

O=C1NC(c2ccccc2)(c2ccccc2)C(=O)N1CN1CCC(c2nc3ccccc3o2)CC1 [CMPD-13, 3-((4-(benzo[d]oxazol-2-yl)piperidin-1-yl)methyl)-5,5-diphenylimidazolidine-2,4-dione]
HIV-1 replication (p24), in words (HIV-1 IIIB): no effect

COc1ccc(NC(C)=O)cc1NC(=O)Cn1cnc2scc(-c3ccc(C)s3)c2c1=O [CMPD-10, N-(5-acetamido-2-methoxyphenyl)-2-(5-(5-methylthiophen-2-yl)-4-oxothieno[2,3-d]pyrimidin-3(4H)-yl)acetamide]
IC50 [1]: 31 µM
HIV-1 replication (p24), in words (HIV-1 IIIB): inhibited HIV-1 replication, albeit to a lesser extent
